# Assay results published in patent US10660877B2 (BRISTOL-MYERS SQUIBB COMPANY, priority 2016, dated 2020).
# Like-named read-outs stand apart in the source and are kept apart here.
# How the values were obtained:
# human TLR9 = human TLR9 (Homo sapiens (Human), UniProt Q9NR96); assay: TLR9 inhibition reporter assay (HEK-Blue cells, SEAP reporter, ODN2006 stimulation);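 note: compounds tested over 0.05 nM to 50 µM, 22 h incubation, inhibition taken as SEAP signal drop from agonist plus DMSO wells toward a known inhibitor control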
# human TLR7 = human TLR7 (Homo sapiens (Human), UniProt Q9NYK1); assay: TLR7 inhibition reporter assay (HEK-Blue cells, SEAP reporter, gardiquimod stimulation); assay type: cell-based
# human TLR8 = human TLR8 (Homo sapiens (Human), UniProt Q9NR97); assay: TLR8 inhibition reporter assay (HEK-Blue cells, SEAP reporter, R848 stimulation);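 note: compounds tested from 0.05 nM to 50 µM, 22 h at 37 °C, SEAP measured with HEK-Blue Detection, inhibition relative to agonist plus DMSO versus a known inhibitor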
# [1] = read-out: TLR9 IC50, HEK-Blue cells overexpressing human TLR9, ODN2006 5 nM
# [2] = HEK-Blue cells overexpressing human TLR7, gardiquimod 7.5 μM
# [3] = read-out: TLR8 IC50, HEK-Blue cells overexpressing human TLR8, R848 15.9 μM
# [4] = read-out: TLR9 IC50, HEK-Blue cells, ODN2006 5 nM
# [5] = HEK-Blue cells, gardiquimod 7.5 μM
# [6] = read-out: TLR8 IC50, HEK-Blue cells, R848 15.9 μM
# [7] = TLR9 IC50, HEK-Blue cells overexpressing human TLR9, ODN2006 5 nM
# [8] = TLR8 IC50, HEK-Blue cells overexpressing human TLR8, R848 15.9 μM
# Chain of human TLR8 (Q9NR97 27-1041): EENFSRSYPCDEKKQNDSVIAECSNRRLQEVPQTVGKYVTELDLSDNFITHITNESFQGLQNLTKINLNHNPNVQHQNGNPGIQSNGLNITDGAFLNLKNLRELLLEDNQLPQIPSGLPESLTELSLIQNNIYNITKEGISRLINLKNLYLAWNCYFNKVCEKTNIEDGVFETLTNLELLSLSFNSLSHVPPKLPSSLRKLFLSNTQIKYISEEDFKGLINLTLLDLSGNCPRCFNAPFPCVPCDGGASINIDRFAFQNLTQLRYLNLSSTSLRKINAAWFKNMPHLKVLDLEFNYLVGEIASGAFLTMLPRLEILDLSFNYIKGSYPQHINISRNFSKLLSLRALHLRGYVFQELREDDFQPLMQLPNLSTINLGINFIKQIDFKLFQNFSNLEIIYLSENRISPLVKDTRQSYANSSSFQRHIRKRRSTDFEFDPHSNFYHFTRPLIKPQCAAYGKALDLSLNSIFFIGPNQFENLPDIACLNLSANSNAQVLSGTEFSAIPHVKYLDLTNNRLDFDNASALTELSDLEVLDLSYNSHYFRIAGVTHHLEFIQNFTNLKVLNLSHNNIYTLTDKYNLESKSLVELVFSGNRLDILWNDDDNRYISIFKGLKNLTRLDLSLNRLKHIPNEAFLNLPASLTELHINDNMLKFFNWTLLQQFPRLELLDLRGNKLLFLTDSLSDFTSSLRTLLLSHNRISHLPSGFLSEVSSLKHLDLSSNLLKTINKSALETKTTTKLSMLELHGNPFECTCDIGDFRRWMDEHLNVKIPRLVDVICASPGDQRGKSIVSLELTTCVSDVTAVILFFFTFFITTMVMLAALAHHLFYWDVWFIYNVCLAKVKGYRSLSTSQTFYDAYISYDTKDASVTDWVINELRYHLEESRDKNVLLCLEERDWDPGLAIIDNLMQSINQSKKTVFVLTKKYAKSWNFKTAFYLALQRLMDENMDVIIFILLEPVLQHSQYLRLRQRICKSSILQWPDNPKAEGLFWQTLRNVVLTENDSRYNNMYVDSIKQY
# Chain of human TLR9 (Q9NR96 26-1032): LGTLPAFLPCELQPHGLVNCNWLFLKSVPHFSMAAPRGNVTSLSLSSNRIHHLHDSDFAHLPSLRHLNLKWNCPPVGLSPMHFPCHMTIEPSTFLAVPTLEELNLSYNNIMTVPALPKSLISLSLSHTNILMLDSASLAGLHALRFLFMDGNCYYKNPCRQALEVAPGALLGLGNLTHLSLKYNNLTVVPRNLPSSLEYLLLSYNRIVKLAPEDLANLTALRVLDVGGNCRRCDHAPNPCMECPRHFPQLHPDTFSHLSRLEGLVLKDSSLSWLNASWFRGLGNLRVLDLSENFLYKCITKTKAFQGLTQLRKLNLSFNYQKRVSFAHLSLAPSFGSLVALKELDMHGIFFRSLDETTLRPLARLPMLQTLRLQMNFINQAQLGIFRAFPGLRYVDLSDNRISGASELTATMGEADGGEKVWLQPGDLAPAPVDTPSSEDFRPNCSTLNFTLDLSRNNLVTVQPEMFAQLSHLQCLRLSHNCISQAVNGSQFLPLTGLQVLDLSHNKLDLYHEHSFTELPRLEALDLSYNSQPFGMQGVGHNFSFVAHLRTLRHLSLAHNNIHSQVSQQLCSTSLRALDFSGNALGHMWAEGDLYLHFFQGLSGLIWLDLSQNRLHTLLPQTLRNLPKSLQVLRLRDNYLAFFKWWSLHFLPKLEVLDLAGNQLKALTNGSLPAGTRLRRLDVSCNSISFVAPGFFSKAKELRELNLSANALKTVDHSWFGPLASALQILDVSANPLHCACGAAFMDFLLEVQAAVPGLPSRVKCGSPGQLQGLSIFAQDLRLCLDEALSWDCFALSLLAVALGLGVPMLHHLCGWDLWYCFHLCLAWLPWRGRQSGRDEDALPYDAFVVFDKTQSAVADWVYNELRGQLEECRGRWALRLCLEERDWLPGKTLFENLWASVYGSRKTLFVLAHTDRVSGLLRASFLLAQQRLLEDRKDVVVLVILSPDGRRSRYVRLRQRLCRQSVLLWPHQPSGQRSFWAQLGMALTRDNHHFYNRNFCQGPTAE
# Chain of human TLR7 (Q9NYK1 27-1049): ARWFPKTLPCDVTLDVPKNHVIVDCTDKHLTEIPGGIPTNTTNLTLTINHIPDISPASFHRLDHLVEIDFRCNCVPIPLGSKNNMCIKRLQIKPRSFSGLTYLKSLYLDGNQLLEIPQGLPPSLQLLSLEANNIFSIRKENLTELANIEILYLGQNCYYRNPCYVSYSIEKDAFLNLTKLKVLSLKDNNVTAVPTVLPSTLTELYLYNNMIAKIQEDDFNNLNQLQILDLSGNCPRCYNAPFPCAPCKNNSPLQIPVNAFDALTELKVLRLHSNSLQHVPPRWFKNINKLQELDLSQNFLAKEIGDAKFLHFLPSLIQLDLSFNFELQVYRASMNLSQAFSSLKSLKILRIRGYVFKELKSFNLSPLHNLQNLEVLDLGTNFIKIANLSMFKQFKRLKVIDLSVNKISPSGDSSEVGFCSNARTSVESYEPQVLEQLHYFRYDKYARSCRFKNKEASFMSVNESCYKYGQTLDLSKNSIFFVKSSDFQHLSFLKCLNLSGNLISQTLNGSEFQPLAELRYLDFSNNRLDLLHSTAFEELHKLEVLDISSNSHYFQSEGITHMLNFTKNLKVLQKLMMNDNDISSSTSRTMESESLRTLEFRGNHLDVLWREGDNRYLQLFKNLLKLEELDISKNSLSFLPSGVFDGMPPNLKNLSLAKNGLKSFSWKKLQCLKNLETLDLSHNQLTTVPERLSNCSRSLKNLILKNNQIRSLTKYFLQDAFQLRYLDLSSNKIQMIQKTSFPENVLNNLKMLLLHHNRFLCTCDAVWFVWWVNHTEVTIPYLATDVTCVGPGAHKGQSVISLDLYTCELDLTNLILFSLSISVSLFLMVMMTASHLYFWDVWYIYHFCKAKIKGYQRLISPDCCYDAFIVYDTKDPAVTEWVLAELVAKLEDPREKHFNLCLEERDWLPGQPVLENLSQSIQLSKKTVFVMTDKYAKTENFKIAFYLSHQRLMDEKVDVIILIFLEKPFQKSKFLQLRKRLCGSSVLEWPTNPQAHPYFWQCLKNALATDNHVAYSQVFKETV
SMILES,IC50 (human TLR9; [1]) [nM],IC50 (human TLR7; [2]) [nM],IC50 (human TLR8; [3]) [nM],IC50 (human TLR9; [4]) [nM],IC50 (human TLR7; [5]) [nM],IC50 (human TLR8; [6]) [nM],IC50 (human TLR9; [7]) [nM],IC50 (human TLR8; [8]) [nM]
"CCc1c(-c2ccnc(OC)c2)[nH]c2ccc(C3CCN(C4C[C@H]5CC[C@@H](C4)N5C)CC3)cc12 (stereo partly drawn) [Example 791, 3-ethyl-2-(2-methoxypyridin-4-yl)-5-(1-((1R,3s,5S)-8-methyl-8-azabicyclo[3.2.1]octan-3-yl)piperidin-4-yl)-1H-indole]",1600,666,158,,,,,
"Cc1cc(-c2[nH]c3ccc(C4CCN(C(=O)CN(C)C5CCCCC5)CC4)cc3c2C(C)C)cc(C)n1 [Example 384, 2-(cyclohexyl (methyl)amino)-1-(4-(2-(2,6-dimethylpyridin-4-yl)-3-isopropyl-1H-indol-5-yl)piperidin-1-yl)ethan-1-one]",630,14.4,57,,,,,
"Cc1cc(-c2[nH]c3ccc(C4CCN(CC(=O)NCC5CC5)CC4)cc3c2C(C)C)cc(C)n1 [Example 223, N-(cyclopropylmethyl)-2-(4-(2-(2,6-dimethylpyridin-4-yl)-3-isopropyl-1H-indol-5-yl)piperidin-1-yl)acetamide]",1160,3.7,10.7,,,,,
"Cc1cc(-c2[nH]c3ccc(C4CCNCC4)cc3c2C(C)C)c(C)cn1 [Example 31, 2-(2,5-dimethylpyridin-4-yl)-3-isopropyl-5-(piperidin-4-yl)-1H-indole]",963,2.6,1,,,,,
"Cc1cc(-c2[nH]c3ccc(C4CCN(C(=O)CCO)CC4)cc3c2C(C)C)cc(C)n1 [Example 117, 1-(4-(2-(2,6-dimethylpyridin-4-yl)-3-isopropyl-1H-indol-5-yl)piperidin-1-yl)-3-hydroxypropan-1-one]",> 50000,6.6,116,,,,,
"Cc1cc(-c2[nH]c3ccc(C4CCN(CC(O)C(F)(F)F)CC4)cc3c2C(C)C)cc(C)n1 (stereo not drawn) [Example 317, 3-(4-(2-(2,6-dimethylpyridin-4-yl)-3-isopropyl-1H-indol-5-yl)piperidin-1-yl)-1,1-trifluoropropan-2-ol]",1120,13.7,13.2,,,,,
"Cc1cc(-c2[nH]c3ccc(C4CCN(CC(C)(C)C(=O)O)CC4)cc3c2C(C)C)cc(C)n1 [Example 321, 3-(4-(2-(2,6-dimethylpyridin-4-yl)-3-isopropyl-1H-indol-5-yl)piperidin-1-yl)-2,2-dimethylpropanoic acid]",> 50000,17.1,68.5,,,,,
"Cc1cc(-c2[nH]c3ccc(C4CCN(C(=O)CN5CC6(COC6)C5)CC4)cc3c2C(C)C)cc(C)n1 [Example 364, 1-(4-(2-(2,6-dimethylpyridin-4-yl)-3-isopropyl-1H-indol-5-yl)piperidin-1-yl)-2-(2-oxa-6-azaspiro[3.3]heptan-6-yl)ethan-1-one]",584,4.4,13.4,,,,,
"Cc1cc(-c2[nH]c3ccc(C4CCN(C(=O)Cn5ccccc5=O)CC4)cc3c2C(C)C)cc(C)n1 [Example 157, 1-(2-(4-(2-(2,6-dimethylpyridin-4-yl)-3-isopropyl-1H-indol-5-yl)piperidin-1-yl)-2-oxoethyl)pyridin-2(1H)-one]",2500,16.5,65.7,,,,,
"Cc1cc(-c2[nH]c3ccc(C4CCN(C(=O)C(F)F)CC4)cc3c2C(C)C)cc(C)n1 [Example 105, 1-(4-(2-(2,6-dimethylpyridin-4-yl)-3-isopropyl-1H-indol-5-yl)piperidin-1-yl)-2,2-difluoroethan-1-one]",,3.3,,,,,12000,21.8
"Cc1cc(-c2[nH]c3ccc(C4CCN(C(=O)CN(CCO)C(C)C)CC4)cc3c2C(C)C)cc(C)n1 [Example 415, 1-(4-(2-(2,6-dimethylpyridin-4-yl)-3-isopropyl-1H-indol-5-yl)piperidin-1-yl)-2-((2-hydroxyethyl)(isopropyl)amino)ethan-1-one]",1860,7.9,39.7,,,,,
"CCc1c(-c2ccnc(-n3ccnc3)c2)[nH]c2ccc(C3CCNCC3)cc12 [Example 67, 2-(2-(1H-imidazol-1-yl)pyridin-4-yl)-3-ethyl-5-(piperidin-4-yl)-1H-indole]",396,1010,9,,,,,
"Cc1cc(-c2[nH]c3ccc(C4CCN(CC(=O)N5CCNC(=O)C5)CC4)cc3c2C(C)C)cc(C)n1 [Example 272, 4-(2-(4-(2-(2,6-dimethylpyridin-4-yl)-3-isopropyl-1H-indol-5-yl)piperidin-1-yl)acetyl)piperazin-2-one]",46,1.2,3.1,,,,,
"Cc1cc(-c2[nH]c3ccc(C4CCNCC4)cc3c2CC(F)F)ccn1 [Example 84, 3-(2,2-difluoroethyl)-2-(2-methylpyridin-4-yl)-5-(piperidin-4-yl)-1H-indole]",464,75.9,39.4,,,,,
"CCc1c(-c2ccnc(C)c2C)[nH]c2ccc(C3CCNCC3)cc12 [Example 70, 2-(2,3-dimethylpyridin-4-yl)-3-ethyl-5-(piperidin-4-yl)-1H-indole]",1110,120,47.2,,,,,

# Next, values leading:
IC50 (human TLR9; [1]) [nM],IC50 (human TLR7; [2]) [nM],IC50 (human TLR8; [3]) [nM],IC50 (human TLR9; [4]) [nM],IC50 (human TLR7; [5]) [nM],IC50 (human TLR8; [6]) [nM],IC50 (human TLR9; [7]) [nM],IC50 (human TLR8; [8]) [nM],SMILES
> 50000,441,1070,,,,,,Cc1ccc(S(=O)(=O)N2CCC(c3ccc4[nH]c(-c5ccnc(C)c5)c(C(C)C)c4c3)CC2)cc1 [Example 554]
,,,519,1.9,5.7,,,"Cc1cc(-c2[nH]c3ccc(C4CCN(C(=O)C(=O)N(C)CCN(C)C)CC4)cc3c2C(C)C)cc(C)n1 [Example 858, N-(2-(dimethylamino)ethyl)-2-(4-(2-(2,6-dimethylpyridin-4-yl)-3-isopropyl-1H-indol-5-yl)piperidin-1-yl)-N-methyl-2-oxoacetamide]"
610,30.2,39.4,,,,,,"CCc1c(-c2ccnc(C)c2)[nH]c2ccc(C3CCN(C(=O)CCN(C)C)CC3)cc12 [Example 594, 3-(dimethylamino)-1-(4-(3-ethyl-2-(2-methylpyridin-4-yl)-1H-indol-5-yl)piperidin-1-yl)propan-1-one]"
1780,1700,1410,,,,,,"CCc1c(-c2ccnc(OC)c2)[nH]c2ccc(C3CCN(C4CCN(C)CC4)CC3)cc12 [Example 790, 3-ethyl-2-(2-methoxypyridin-4-yl)-5-(1′-methyl-[1,4′-bipiperidin]-4-yl)-1H-indole]"
,39.2,,,,,363,18.3,"CCc1c(-c2ccnc(C)c2)[nH]c2ccc(C3CCN(C(=O)[C@@H]4CCCCN4)CC3)cc12 [Example 628, (S)-(4-(3-ethyl-2-(2-methylpyridin-4-yl)-1H-indol-5-yl)piperidin-1-yl)(piperidin-2-yl)methanone]"
,,,38,292,28.4,,,"Cc1c(-c2ccncc2)[nH]c2ccc(C3CCN(C4CCN(C(C)C)CC4)CC3)cc12 [Example 843, 5-(1′-isopropyl-[1,4′-bipiperidin]-4-yl)-3-methyl-2-(pyridin-4-yl)-1H-indole]"
9410,9.2,8.2,,,,,,"Cc1nccc(-c2[nH]c3ccc(C4CCN(C5COC5)CC4)cc3c2C(C)C)c1F [Example 730, 2-(3-fluoro-2-methylpyridin-4-yl)-3-isopropyl-5-(1-(oxetan-3-yl)piperidin-4-yl)-1H-indole]"
1500,5380,1050,,,,,,"CCc1c(-c2ccnc(OC(C)C)c2)[nH]c2ccc(C3CCN(C4CCN(CC(C)C)CC4)CC3)cc12 [Example 769, 3-ethyl-5-(1′-isobutyl-[1,4′-bipiperidin]-4-yl)-2-(2-isopropoxypyridin-4-yl)-1H-indole]"
> 50000,102,266,,,,,,"CCCS(=O)(=O)N1CCC(c2ccc3[nH]c(-c4ccnc(C)c4)c(C(C)C)c3c2)CC1 [Example 545, 3-isopropyl-2-(2-methylpyridin-4-yl)-5-(1-(propylsulfonyl)piperidin-4-yl)-1H-indole]"
,,,209,71.5,5.8,,,"Cc1cc(-c2[nH]c3ccc(C4CCN(Cc5cnc[nH]5)CC4)cc3c2C(C)C)ccn1 [Example 820, 5-(1-((1H-imidazol-5-yl)methyl)piperidin-4-yl)-3-isopropyl-2-(2-methylpyridin-4-yl)-1H-indole]"
> 50000,15.6,36.8,,,,,,"Cc1cc(-c2[nH]c3ccc(C4CCN(C(=O)C5CC(=O)N(C)C5)CC4)cc3c2C(C)C)c(F)cn1 (stereo not drawn) [Example 583, 4-(4-(2-(5-fluoro-2-methylpyridin-4-yl)-3-isopropyl-1H-indol-5-yl)piperidine-1-carbonyl)-1-methylpyrrolidin-2-one]"
86,19,32.1,,,,,,"Cc1cc(-c2[nH]c3ccc(C4CCN(CC5CC5)CC4)cc3c2C2CC2)cc(C)n1 [Example 667, 3-cyclopropyl-5-(1-(cyclopropylmethyl)piperidin-4-yl)-2-(2,6-dimethylpyridin-4-yl)-1H-indole]"
131,11.8,25.6,,,,,,"Cc1cc(-c2[nH]c3ccc(C4CCN(C5CCN(C(C)C)CC5)CC4)cc3c2CC(F)F)cc(C)n1 [Example 540, 3-(2,2-difluoroethyl)-2-(2,6-dimethylpyridin-4-yl)-5-(1′-isopropyl-[1,4′-bipiperidin]-4-yl)-1H-indole]"
14500,201,226,,,,,,"CCc1c(-c2ccnc(C)c2)[nH]c2ccc(C3CCN(C(=O)[C@H]4CC(F)(F)CN4)CC3)cc12 [Example 623, (R)-(4,4-difluoropyrrolidin-2-yl)(4-(3-ethyl-2-(2-methylpyridin-4-yl)-1H-indol-5-yl)piperidin-1-yl)methanone]"
